Measurements published in patent publication US9232796B2, “Herbicidal compositions comprising 4-amino-3-chloro-5-fluoro-6-(4-chloro-2-fluoro-3-methoxyphenyl) pyridine-2-carboxylic acid or a derivative thereof and acetyl-CoA carboxylase (ACCase) inhibitors” (DOW AGROSCIENCES LLC, priority 2012, dated 2016).

Assays:
Experiment in all cases: Example V (second) postemergence foliar-applied ternary mixtures, greenhouse, direct seeded rice weeds
ECHCG = format: in vivo, Echinochloa crus-galli (L.) Beauv.; settings: 280 gai/ha
Description: Seeds or nutlets of the desired test plant species were planted in a soil matrix prepared by mixing a sandy loam or loam soil (e.g., 32 percent silt, 23 percent clay, and 45 percent sand, with a pH of about 6.5 and an organic matter content of about 1.9 percent) and calcareous grit in an 80 to 20 ratio. The soil matrix was contained in plastic pots with a volume of 1 quart and a surface area of 83.6 square centimeters (cm^2). When required to ensure good germination and healthy plants, a fungicide treatment and/or other chemical or physical treatment was applied. The plants were grown for 8-22 days in a greenhouse with an approximate 14 hr. photoperiod which was maintained at about 29° C. during the day and 26° C. during the night. Nutrients (Peters Excel® 15-5-15 5-Ca 2-Mg and iron chelate) were applied in the irrigation solution as needed and water was added on a regular basis. Supplemental lighting was provided with overhead metal halide 1000-Watt lamps as necessary. The plants were employed for testing when they reached the first through fourth true leaf stage.
Treatments consisted of the benzyl ester of 4-amino-3-chloro-5-fluoro-6-(4-chloro-2-fluoro-3-methoxy-phenyl)pyridine-2-carboxylic acid (Compound A), formulated as an SC (suspension concentrate), an ACCase inhibitor, and a third herbicidal component, each applied alone and in ternary combination. Forms of compound A were applied on an acid equivalent basis.
The ACCase inhibitor component was applied on an active ingredient basis and included cyhalofop-R-butyl formulated as Clincher® SF, fenoxaprop-p-ethyl formulated as RiceStar® HT, and profoxydim formulated as Aura® 20EC. Other herbicidal components were applied on an active ingredient or acid equivalent basis depending on the compound and included penoxsulam formulated as Grasp® SC, bentazon sodium formulated as Basagran®, triclopyr […] (TEA) salt formulated as Grandstand® R, bispyribac sodium formulated as Regiment® 80WP, imazamox ammonium formulated as Beyond®, benzobicyclon, quinclorac formulated as Facet® 75DF, glyphosate dimethylammonium (DMA) salt formulated as Durango® DMA, glufosinate ammonium formulated as Ignite® 280, fentrazamide formulated as an emulsifiable concentrate (EC), propyrisulfuron formulated as Zeta One®, and indanofan (technical grade material).
Treatment requirements were calculated based upon the rates being tested, the concentration of active ingredient or acid equivalent in the formulation, and a 12 mL application volume at a rate of 187 L/ha.
For treatments comprised of formulated compounds, measured amounts of compounds were placed individually in 25 mL glass vials and diluted in a volume of 1.25% (v/v) Agri-Dex® crop oil concentrate to obtain 12× stock solutions. […] Application solutions were prepared by adding an appropriate amount of each stock solution (e.g., 1 mL) and diluted to the appropriate final concentrations with the addition of 9 mL of an aqueous mixture of 1.25% (v/v) crop oil concentrate so that the final spray solutions contained 1.25% (v/v) crop oil concentrate.
As required, additional water and/or 97:3 v/v acetone/DMSO was added to individual application solutions so that the final acetone and DMSO concentrations of the application solutions being compared were 8.1% and 0.25%, respectively.
All stock solutions and applications solutions were visually inspected for compound compatibility prior to application. Spray solutions were applied to the plant material with an overhead Mandel track sprayer equipped with a 8002E nozzles calibrated to deliver 187 L/ha over an application area of 0.503 m^2 at a spray height of 18 inches (46 cm) above average plant canopy height. Control plants were sprayed in the same manner with the solvent blank.
The treated plants and control plants were placed in a greenhouse as described above and watered by sub-irrigation to prevent wash-off of the test compounds. […]

CYPES = format: in vivo, Cyperus esculentus L.
Experimental: (§1) The treated plants and control plants were placed in a greenhouse as described above and watered by sub-irrigation to prevent wash-off of the test compounds. After approximately 3 weeks, the condition of the test plants as compared with that of the untreated plants was determined visually and scored on a scale of 0 to 100 percent where 0 corresponds to no injury or growth inhibition and 100 corresponds to complete kill.
(§2) Colby's equation was used to determine the herbicidal effects expected from the mixtures (Colby, S. R. 1967. Calculation of the synergistic and antagonistic response of herbicide combinations. Weeds 15:20-22.).
(§3) The following equation was used to calculate the expected activity of mixtures containing three active ingredients, A, B, and C: Expected=A+B+C−((A×B+A×C+B×C)/100)+(A×B×C/10000)

ECHCO = format: in vivo, Echinochloa colona (L.) Link; settings: 115 gai/ha
Experimental: as §1, §2, §3

IPOHE = format: in vivo, Ipomoea hederacea Jacq.
Experimental: as §1, §2, §3

## O=C(O)c1c(Cl)ccc2cc(Cl)cnc12 [Quinclorac]
ECHCG
  Visual Weed Control (%) - 21 DAA ECHCG Obs: 10%
CYPES; 280 gai/ha
  Visual Weed Control (%) - 21 DAA CYPES Obs: 0%

## CP(=O)(O)CCC(N)C(=O)O (stereo not shown) [Glufosinate ammonium]
ECHCO
  Visual Weed Control (%) - 21 DAA ECHCO Obs: 0%

## COc1cc(OC)nc(Oc2cccc(Oc3nc(OC)cc(OC)n3)c2C(=O)O)n1 [Bispyribac sodium]
IPOHE; 28 gai/ha
  Visual Weed Control (%) - 21 DAA IPOHE Obs: 60%
CYPES; 28 gai/ha
  Visual Weed Control (%) - 21 DAA CYPES Obs: 20%

## COCc1cnc(C2=NC(C)(C(C)C)C(=O)N2)c(C(=O)O)c1 (stereo not shown) [Imazamox ammonium]
IPOHE; 6 gae/ha
  Visual Weed Control (%) - 21 DAA IPOHE Obs: 65%
CYPES; 12 gae/ha
  Visual Weed Control (%) - 21 DAA CYPES Obs: 60%
